Two compounds from patent US8207142B2, “Inhibitor of DNA methylation” (priority 2001, dated 2012) can be followed below.

Data set [1] can be described thus: Toxicity (Table 1 summary of characteristics).
Data set [2] deals with human p16 cDNA in EJ6 tumor cells. As to the kind of experiment: RT-PCR of p16 gene expression in EJ6 tumor cells growing in mice. Format: in vivo. The conditions noted are these: EJ6 tumor cells in BALB/c nu/nu mice after treatment. How it is done:
Total RNA was isolated from the tumors to analyze gene expression using conventional methods. DNA also was isolated, to measure the methylation status of p16 promoter by Ms-SnuPE as described below.
GAPDH mRNA levels were measured to control for the quantity and integrity of the input RNA. The control group represents tumors obtained from mice mock-treated either with 0.45% NaCl via intraperitoneal injection or oral gavage feeding. Results from one of six similar independent tumors are shown for each group in FIG. 15.

A further data set concerns the target T1, DNMT1 (Homo sapiens, UniProt P26358).
T1 construct: protein extracts were isolated from both treated and untreated T24; endogenous in cells; host or cells: T24 human bladder carcinoma cells (ATCC)
As to the kind of experiment: Western blot of DNMT1 level in treated T24 cells. It counts as cell-based. The conditions noted are these: 500 μM for 48 h. Here is the method:
(§1) The mRNA for DNMT3b3 is the only 3b transcript expressed in T24 cells, and DNMT3a levels could not be assessed because no suitable antibodies against DNMT3a are available. Thus, with reference to FIG. 12, protein extracts were isolated from both treated and untreated T24 (population 3 million cells, treated with 500 μM Zebularine for 48 h), and […] with specific antibodies for DNMT1 and DNMT3b3 as shown in FIG. 12. β-actin was included as a loading control, and the molecular weights of each protein are indicated.
(Immunoblotting shows a protein as a band on a membrane.)

Data set [3] has as its system p16 promoter and p16 exon 2. Put plainly: Continuous long-term treatment of T24 cells, methylation of p16 promoter and p16 exon 2. The following applies: 100 μM continuous treatment, Day 14, T24 cells; dropped from ˜96%. Format: cell-based, human.
In a further data set the target is T2, DNMT3b3 (Homo sapiens, UniProt Q9UBC3).
T2 construct: protein extracts were isolated from both treated and untreated T24; endogenous in cells; host or cells: T24 human bladder carcinoma cells (ATCC)
Put plainly: Western blot of DNMT3b3 level in treated T24 cells. It counts as cell-based. The following applies: 500 μM for 48 h. Here is the method: as §1

A further data set relates to N. crassa. It counts as cell-based. The following applies: Neurospora crassa, 400 nmoles. Here is the method:
Strains with mutations in dim-2 lack all detectable methyltransferase activity. A dim-2 strain (N613) and a wild-type control (N242) were challenged with a high concentration of Zebularine. The concentration of Zebularine is indicated above the plates and was applied to the paper disc as in FIG. 5; no hygromycin was applied to these plates.
(§2) Plate tests were performed with solidified medium essentially as previously described (Selker, Proc. Natl. Acad. Sci. USA 95;9430-9435, 1998). In brief, approximately 2,000 N. crassa conidia of the indicated were plated on each plate. Drugs were administered from a 4-mm diameter Whatman™ no. 1 paper disk placed in the middle of each plate shortly after plating.
Strains with mutations in dim-2 lack all detectable methyltransferase activity (Kouzminova and Selker, “Dim-2 encodes a DNA-methyltransferase responsible for all known cytosine methylation in Neurospora,” EMBO J. Aug. 1, 2001). In order to examine whether Zebularine toxicity is mediated by its methyltransferase-inhibitory activity, dim-2 strain (N613) and a wild-type control (N242) were challenged with a high concentration (400 nmoles) of Zebularine. No hygromycin was applied to these plates.

Another data set deals with silenced hph gene. As to the kind of experiment: Plate assay, reactivation of the methylation-silenced hph gene (hygromycin resistance), strain N644. Format: cell-based, Neurospora crassa. The conditions noted are these: 2.5-400 nmoles on paper disc. Here is the method:
FIG. 5 is a series of photographs of plate assays, showing reactivation of the silenced hph gene in Neurospora crassa by Zebularine. N. crassa strain N644 has a single copy of the E. coli hph gene that was silenced by cytosine methylation. The active hph gene confers hygromycin resistance.
Treatments are indicated above each plate; the listed compound was applied to the paper discs in the middle of each plate. With the exception of the “no hygromycin” plate, all plates had 5 mg hygromycin B added in a 5 ml 0.7% agar overlay after 24 hours growth at 32° C. The plates were then incubated an additional two days at the same temperature and photographed.
as §2
N. crassa was used to quantitatively examine the effectiveness of Zebularine at reducing or reversing methylation (Selker, Proc. Natl. Acad. Sci. USA, 95:9430-9435, 1998). […]

A further data set deals with T24 cells. As to the kind of experiment: Incorporation of Zebularine into DNA and RNA in T24 cells. Format: in vitro ADME, human. The following applies: 10 μM, 1 μCi, 24 hr. Here is the method:
FIG. 19 is a bar graph depicting the relative incorporation of Zebularine into DNA and RNA in T24 cells, showing that approximately 7 times the amount of Zebularine is incorporated into RNA as DNA.
Following a similar incubation protocol in T24 cells (Zebularine (10 μM, 1 μCi) for 24 hr, cellular DNA and RNA were isolated by the tri-reagent method according to the manufacture's instructions. Levels of Zebularine and 2′-Deoxyzebularine were determined by measuring total radioactivity in purified RNA and DNA, respectively. The identity of Zebularine and 2′-Deoxyzebularine was accomplished by a reverse phase HPLC analysis of digested RNA and DNA and comparison against authentic standards. In FIG. 19 a bar graph depicts the relative incorporation of Zebularine into DNA and RNA in T24 cells, showing that approximately 7 times the amount of Zebularine is incorporated into RNA as DNA.

The nature of data set [4]: Body weight of tumor-bearing BALB/c nu/nu mice. Format: in vivo. How it is done:
EJ6 cells (5×10^5/injection) were inoculated subcutaneously into the right and left flanks of male BALB/c nu/nu mice at 4-6 weeks of age (available from Harlan, San Diego, Calif.). Zebularine treatments were initiated after macroscopic (50-200 mm 3) tumor formation (4-6 weeks later). Zebularine (500 mg/kg or 1000 mg/kg) was administered daily via intraperitoneal injection or oral gauage feeding over a period of 18 days. Control mice received 0.45% saline administered via intraperitoneal injection or oral gavage feeding over a period of 18 days. Mice (n=30) were divided into five groups (control group, 500 mg/kg intraperitoneal injection, 500 mg/kg oral, 1000 mg/kg intraperitoneal injection, and 1000 mg/kg oral). Each treatment group consisted of a minimum of five animals (at least 6 tumors per group).
Similarly, each group of mice (n=5 or 6) was weighed at the indicated time points, and average body weight was plotted against days after initial treatment in FIG. 14.

T1 sequence (P26358 whole entry): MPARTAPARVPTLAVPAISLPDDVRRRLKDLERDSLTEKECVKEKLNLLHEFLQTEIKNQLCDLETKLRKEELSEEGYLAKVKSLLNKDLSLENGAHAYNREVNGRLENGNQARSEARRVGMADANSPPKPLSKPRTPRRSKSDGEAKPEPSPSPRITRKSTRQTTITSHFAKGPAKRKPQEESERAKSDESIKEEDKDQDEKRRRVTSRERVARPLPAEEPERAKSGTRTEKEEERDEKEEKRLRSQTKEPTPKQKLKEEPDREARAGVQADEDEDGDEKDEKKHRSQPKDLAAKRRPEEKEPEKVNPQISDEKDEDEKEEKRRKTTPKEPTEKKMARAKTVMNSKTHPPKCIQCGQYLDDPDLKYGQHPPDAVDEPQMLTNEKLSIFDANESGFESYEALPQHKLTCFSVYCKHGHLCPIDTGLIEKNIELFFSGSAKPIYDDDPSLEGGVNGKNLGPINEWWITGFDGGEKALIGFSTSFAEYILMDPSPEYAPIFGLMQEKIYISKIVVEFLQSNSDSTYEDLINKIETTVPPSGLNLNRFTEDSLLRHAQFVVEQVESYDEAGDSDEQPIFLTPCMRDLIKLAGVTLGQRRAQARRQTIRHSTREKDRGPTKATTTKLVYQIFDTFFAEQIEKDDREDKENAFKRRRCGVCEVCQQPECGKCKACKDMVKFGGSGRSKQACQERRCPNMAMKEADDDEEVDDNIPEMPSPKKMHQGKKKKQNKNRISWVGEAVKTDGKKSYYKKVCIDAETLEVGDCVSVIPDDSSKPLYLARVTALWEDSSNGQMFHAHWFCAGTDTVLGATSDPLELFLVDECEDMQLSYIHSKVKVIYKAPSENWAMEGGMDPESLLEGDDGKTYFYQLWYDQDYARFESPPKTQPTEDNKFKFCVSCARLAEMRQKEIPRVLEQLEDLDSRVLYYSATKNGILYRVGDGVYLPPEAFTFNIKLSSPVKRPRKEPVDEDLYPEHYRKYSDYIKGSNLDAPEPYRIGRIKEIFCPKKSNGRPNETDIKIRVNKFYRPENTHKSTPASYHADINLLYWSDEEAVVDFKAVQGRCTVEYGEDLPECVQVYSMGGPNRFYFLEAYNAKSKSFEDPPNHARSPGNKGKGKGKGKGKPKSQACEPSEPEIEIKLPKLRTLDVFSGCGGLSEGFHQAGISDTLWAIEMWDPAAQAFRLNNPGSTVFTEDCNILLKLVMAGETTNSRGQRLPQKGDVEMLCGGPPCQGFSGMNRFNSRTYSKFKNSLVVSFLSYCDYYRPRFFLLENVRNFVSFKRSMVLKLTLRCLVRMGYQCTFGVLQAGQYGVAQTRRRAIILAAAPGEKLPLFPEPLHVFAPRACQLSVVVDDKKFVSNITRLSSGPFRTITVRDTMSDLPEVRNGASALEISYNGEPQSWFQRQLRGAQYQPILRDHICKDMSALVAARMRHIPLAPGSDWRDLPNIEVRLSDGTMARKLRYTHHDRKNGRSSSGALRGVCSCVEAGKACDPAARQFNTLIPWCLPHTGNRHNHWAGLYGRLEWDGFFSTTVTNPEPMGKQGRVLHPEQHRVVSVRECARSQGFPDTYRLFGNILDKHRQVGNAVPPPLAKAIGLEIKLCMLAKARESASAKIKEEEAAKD

As to `Nc1ncn([C@@H]2O[C@H](CO)[C@@H](O)[C@H]2O)c(=O)n1` [5-Aza-CR, 5-azacytidine, reference compound], the Toxicity result in data set [1] was “High”.

For the compound `O=c1ncccn1[C@@H]1O[C@H](CO)[C@@H](O)[C@H]1O` [Zebularine, 1-β-ribofuranosyl-1,2-dihydropyrimidin-2-one], the “p16 gene expression in vivo (RT-PCR)” value in data set [2] is listed as “Reactivation of p16 gene expression”. In addition, on DNMT1, the “level of DNMT1” value is on record as “significant reduction”. Also, in data set [3], the “methylation level at maximum demethylation” value is on record as about 47%. The “level of DNMT3b3” value at DNMT3b3 is on record as “significant reduction”. The “region of conidia toxicity around the filter disk, dim-2 vs wild type” value with N. crassa is “roughly equivalent in both dim-2 and wildtype strains”. For the same compound, the “reactivation of silenced hph gene (conidia growth on hygromycin)” value in the data set with silenced hph gene was “reactivate the hph gene”. Moreover, in the data set with T24 cells, the “amount incorporated into RNA relative to DNA” value was “approximately 7 times”. In addition, the weight loss entry in [4] (all treated groups: 500 or 1000 mg/kg daily, intraperitoneal or oral, 18 days) was “weight loss was minimal”. Also, the greatest weight loss in [4] (group treated with 1000 mg/kg) is on record as about 7%.
